Assays:
SREBP-2 = SREBP-2 (Homo sapiens (Human), UniProt Q12772); test: In vitro assay SREBP-2: PathHunter U2OS SREBP-2 Nuclear Translocation Cell Line, U18666A-stimulated; format: cell-based; conditions: PathHunter U2OS SREBP-2 nuclear translocation cells, U18666A 10 μM, overnight (16 hours)
LXRβ = LXRβ (Homo sapiens (Human), UniProt P55055); test: In vitro assay LXRβ: PathHunter NHR CHO cells, LXRβ / Steroid Receptor Co-activator Peptide enzyme fragment complementation; format: cell-based; conditions: PathHunter NHR CHO cells, full-length human LXRβ and SRCP, chemiluminescent signal; read-out: LXRβ PPI
Chain of LXRβ (P55055 whole entry, the tested form may be a part): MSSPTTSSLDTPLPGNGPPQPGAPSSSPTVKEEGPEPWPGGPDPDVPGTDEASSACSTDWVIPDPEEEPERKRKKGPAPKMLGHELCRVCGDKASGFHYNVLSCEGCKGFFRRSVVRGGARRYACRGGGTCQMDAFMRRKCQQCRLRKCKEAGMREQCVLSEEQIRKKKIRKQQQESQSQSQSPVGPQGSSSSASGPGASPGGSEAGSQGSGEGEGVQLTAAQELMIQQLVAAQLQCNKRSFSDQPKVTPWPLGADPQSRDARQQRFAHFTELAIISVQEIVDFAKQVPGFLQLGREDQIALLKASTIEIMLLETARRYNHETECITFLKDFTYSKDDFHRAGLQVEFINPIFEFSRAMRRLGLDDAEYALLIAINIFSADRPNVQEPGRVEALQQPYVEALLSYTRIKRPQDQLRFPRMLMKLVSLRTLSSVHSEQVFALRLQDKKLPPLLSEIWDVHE
In short: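 Enzyme fragment complementation read-out: CHO cells stably expressing ProLink-tagged full-length human LXRβ plus nuclear enzyme acceptor–SRCP fusion, seeded and held overnight at 37° C. Medium with charcoal-dextran filtered serum; final vehicle 1%. Chemiluminescence measured after signal generation.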

## C[C@H](CCC(=O)N1CCC[C@H](O)C1)[C@H]1CC[C@H]2[C@@H]3CC=C4C[C@@H](O)CC[C@]4(C)[C@H]3CC[C@]12C [Example 103, (R)-4-((3S,8S,9S,10R,13R,14S,17R)-3-hydroxy-10,13-dimethyl-2,3,4,7,8,9,10,11,12,13,14,15,16,17-tetradecahydro-1H-cyclopenta[a]phenanthren-17-yl)-1-((S)-3-hydroxypiperidin-1-yl)pentan-1-one]
SREBP-2
  IC50: < 250 nM
LXRβ
  EC50: 250 to 1000 nM

## COc1nnccc1N1CCN(C(=O)CC[C@@H](C)[C@H]2CC[C@H]3[C@@H]4CC=C5C[C@@H](O)CC[C@]5(C)[C@H]4CC[C@]23C)CC1 [Example 629, (R)-4-((3S,8S,9S,10R,13R,14S,17R)-3-hydroxy-10,13-dimethyl-2,3,4,7,8,9,10,11,12,13,14,15,16,17-tetradecahydro-1H-cyclopenta[a]phenanthren-17-yl)-1-(4-(3-methoxypyridazin-4-yl)piperazin-1-yl)pentan-1-one]
SREBP-2
  IC50: < 250 nM
LXRβ
  EC50: > 10000 nM

## C[C@H](CCc1cccc(Cl)n1)[C@H]1CC[C@H]2[C@@H]3CC=C4C[C@@H](O)CC[C@]4(C)[C@H]3CC[C@]12C [Example 165, (3S,8S,9S,10R,13R,14S,17R)-17-((R)-4-(6-chloropyridin-2-yl)butan-2-yl)-10,13-dimethyl-2,3,4,7,8,9,10,11,12,13,14,15,16,17-tetradecahydro-1H-cyclopenta[a]phenanthren-3-ol]
SREBP-2
  IC50: 250 to 1000 nM
LXRβ
  EC50: > 10000 nM

## C[C@H](CCC(=O)N1CCN(C(=O)c2cn(C)nn2)CC1)[C@H]1CC[C@H]2[C@@H]3CC=C4C[C@@H](O)CC[C@]4(C)[C@H]3CC[C@]12C [Example 308, (R)-4-((3S,8S,9S,10R,13R,14S,17R)-3-hydroxy-10,13-dimethyl-2,3,4,7,8,9,10,11,12,13,14,15,16,17-tetradecahydro-1H-cyclopenta[a]phenanthren-17-yl)-1-(4-(1-methyl-1H-1,2,3-triazole-4-carbonyl)piperazin-1-yl)pentan-1-one]
SREBP-2
  IC50: < 250 nM
LXRβ
  EC50: > 10000 nM

## CC(C)OC(=O)N1CCN(C(=O)CC[C@@H](C)[C@H]2CC[C@H]3[C@@H]4CC=C5C[C@@H](O)CC[C@]5(C)[C@H]4CC[C@]23C)C[C@@H]1C [Example 576, isopropyl(S)-4-((R)-4-((3S,8S,9S,10R,13R,14S,17R)-3-hydroxy-10,13-dimethyl-2,3,4,7,8,9,10,11,12,13,14,15,16,17-tetradecahydro-1H-cyclopenta[a]phenanthren-17-yl)pentanoyl)-2-methylpiperazine-1-carboxylate]
SREBP-2
  IC50: < 250 nM
LXRβ
  EC50: > 10000 nM

## COCCN(C)C(=O)OC[C@@H](C)[C@H]1CC[C@H]2[C@@H]3CC=C4C[C@@H](O)CC[C@]4(C)[C@H]3CC[C@]12C [Example 349, (S)-2-((3S,8S,9S,10R,13S,14S,17R)-3-hydroxy-10,13-dimethyl-2,3,4,7,8,9,10,11,12,13,14,15,16,17-tetradecahydro-1H-cyclopenta[a]phenanthren-17-yl)propyl (2-methoxyethyl)(methyl)carbamate]
SREBP-2
  IC50: < 250 nM
LXRβ
  EC50: > 10000 nM

## C[C@H](CCC(=O)N1CCN(C(=O)N(C)C)CC1)[C@H]1CC[C@H]2[C@@H]3CC=C4C[C@@H](O)CC[C@]4(C)[C@H]3CC[C@]12C [Example 339, 4-[(4R)-4-[(1R,3aS,3bS,7S,9aR,9bS,11aR)-7-hydroxy-9a,11a-dimethyl-1H,2H,3H,3aH,3bH,4H,6H,7H,8H,9H,9aH,9bH,10H,11H,11aH-cyclopenta[a]phenanthren-1-yl]pentanoyl]-N,N-dimethylpiperazine-1-carboxamide]
SREBP-2
  IC50: < 250 nM
LXRβ
  EC50: > 10000 nM

## C[C@H](CCC(=O)N1CC[C@H](Oc2ccncc2)C[C@@H]1C)[C@H]1CC[C@H]2[C@@H]3CC=C4C[C@@H](O)CC[C@]4(C)[C@H]3CC[C@]12C [Example 585, (R)-4-((3S,8S,9S,10R,13R,14S,17R)-3-hydroxy-10,13-dimethyl-2,3,4,7,8,9,10,11,12,13,14,15,16,17-tetradecahydro-1H-cyclopenta[a]phenanthren-17-yl)-1-((2S,4S)-2-methyl-4-(pyridin-4-yloxy)piperidin-1-yl)pentan-1-one]
SREBP-2
  IC50: < 250 nM
LXRβ
  EC50: 250 to 1000 nM

## C[C@H](CCc1cccc(F)n1)[C@H]1CC[C@H]2[C@@H]3CC=C4C[C@@H](O)CC[C@]4(C)[C@H]3CC[C@]12C [Example 161, (3S,8S,9S,10R,13R,14S,17R)-17-((R)-4-(6-fluoropyridin-2-yl)butan-2-yl)-10,13-dimethyl-2,3,4,7,8,9,10,11,12,13,14,15,16,17-tetradecahydro-1H-cyclopenta[a]phenanthren-3-ol]
SREBP-2
  IC50: < 250 nM
LXRβ
  EC50: 1000 to 10000 nM

## C[C@H](CCC(=O)N1CCN(C(=O)N(C)CC2CC2)C[C@@H]1C)[C@H]1CC[C@H]2[C@@H]3CC=C4C[C@@H](O)CC[C@]4(C)[C@H]3CC[C@]12C [Example 637, (S)—N-(cyclopropylmethyl)-4-((R)-4-((3S,8S,9S,10R,13R,14S,17R)-3-hydroxy-10,13-dimethyl-2,3,4,7,8,9,10,11,12,13,14,15,16,17-tetradecahydro-1H-cyclopenta[a]phenanthren-17-yl)pentanoyl)-N,3-dimethylpiperazine-1-carboxamide]
SREBP-2
  IC50: < 250 nM
LXRβ
  EC50: > 10000 nM

## C[C@H](CCC(=O)N1CCN(c2cncn2C)CC1)[C@H]1CC[C@H]2[C@@H]3CC=C4C[C@@H](O)CC[C@]4(C)[C@H]3CC[C@]12C [Example 481, (4R)-4-[(1R,3aS,3bS,7S,9aR,9bS,11aR)-7-hydroxy-9a,11a-dimethyl-1H,2H,3H,3aH,3bH,4H,6H,7H,8H,9H,9aH,9bH,10H,11H,11aH-cyclopenta[a]phenanthren-1-yl]-1-[4-(1-methyl-1H-imidazol-5-yl)piperazin-1-yl]pentan-1-one]
SREBP-2
  IC50: < 250 nM
LXRβ
  EC50: > 10000 nM

## C[C@H](CCC(=O)N(C)C)[C@H]1CC[C@H]2[C@@H]3CC=C4C[C@@](C)(O)CC[C@]4(C)[C@H]3CC[C@]12C [Example 120, (R)-4-((3S,8S,9S,10R,13R,14S,17R)-3-hydroxy-3,10,13-trimethyl-2,3,4,7,8,9,10,11,12,13,14,15,16,17-tetradecahydro-1H-cyclopenta [a]phenanthren-17-yl) -N,N-dimethylpentanamide]
SREBP-2
  IC50: 1000 to 10000 nM
LXRβ
  EC50: > 10000 nM

## CCCN(OC)C(=O)CC[C@@H](C)[C@H]1CC[C@H]2[C@@H]3CC=C4C[C@@H](O)CC[C@]4(C)[C@H]3CC[C@]12C [Example 13, (R)-4-((3S,8S,9S,10R,13R,14S,17R)-3-hydroxy-10,13-dimethyl-2,3,4,7,8,9,10,11,12,13,14,15,16,17-tetradecahydro-1H-cyclopenta[a]phenanthren-17-yl)-N-methoxy-N-propylpentanamide]
SREBP-2
  IC50: < 250 nM
LXRβ
  EC50: 250 to 1000 nM

## C[C@H](COc1cccnc1)[C@H]1CC[C@H]2[C@@H]3CC=C4C[C@@H](O)CC[C@]4(C)[C@H]3CC[C@]12C [Example 180, (3S,8S,9S,10R,13S,14S,17R)-10,13-dimethyl-17-((S)-1-(pyridin-3-yloxy)propan-2-yl)-2,3,4,7,8,9,10,11,12,13,14,15,16,17-tetradecahydro-1H-cyclopenta[a]phenanthren-3-ol]
SREBP-2
  IC50: < 250 nM
LXRβ
  EC50: > 10000 nM

## C[C@H](CCC(=O)N1CCN(c2cnccn2)CC1)[C@H]1CC[C@H]2[C@@H]3CC=C4C[C@@H](O)CC[C@]4(C)[C@H]3CC[C@]12C [Example 304, (R)-4-((3S,8S,9S,10R,13R,14S,17R)-3-hydroxy-10,13-dimethyl-2,3,4,7,8,9,10,11,12,13,14,15,16,17-tetradecahydro-1H-cyclopenta[a]phenanthren-17-yl)-1-(4-(pyrazin-2-yl)piperazin-1-yl)pentan-1-one]
SREBP-2
  IC50: < 250 nM
LXRβ
  EC50: > 10000 nM

## Cc1ccnc(N2CCN(C(=O)CC[C@@H](C)[C@H]3CC[C@H]4[C@@H]5CC=C6C[C@@H](O)CC[C@]6(C)[C@H]5CC[C@]34C)CC2)c1 [Example 658, (R)-4-((3S,8S,9S,10R,13R,14S,17R)-3-hydroxy-10,13-dimethyl-2,3,4,7,8,9,10,11,12,13,14,15,16,17-tetradecahydro-1H-cyclopenta[a]phenanthren-17-yl)-1-(4-(4-methylpyridin-2-yl)piperazin-1-yl)pentan-1-one]
SREBP-2
  IC50: < 250 nM
LXRβ
  EC50: > 10000 nM

## C[C@H](CCC(=O)N1CCN(c2cccnc2O)CC1)[C@H]1CC[C@H]2[C@@H]3CC=C4C[C@@H](O)CC[C@]4(C)[C@H]3CC[C@]12C [Example 640, (R)-4-((3S,8S,9S,10R,13R,14S,17R)-3-hydroxy-10,13-dimethyl-2,3,4,7,8,9,10,11,12,13,14,15,16,17-tetradecahydro-1H-cyclopenta[a]phenanthren-17-yl)-1-(4-(2-hydroxypyridin-3-yl)piperazin-1-yl) pentan-1-one]
SREBP-2
  IC50: < 250 nM
LXRβ
  EC50: > 10000 nM

## CC(=O)N1CCOC12CN(C(=O)CC[C@@H](C)[C@H]1CC[C@H]3[C@@H]4CC=C5C[C@@H](O)CC[C@]5(C)[C@H]4CC[C@]13C)C2 [Example 410, (4R)-4-[(1R,3aS,3bS,7S,9aR,9bS,11aR)-7-hydroxy-9a,11a-dimethyl-1H,2H,3H,3aH,3bH,4H,6H,7H,8H,9H,9aH,9bH,10H,11H,11aH-cyclopenta[a]phenanthren-1-yl]-1-{δ-acetyl-5-oxa-2,8-diazaspiro[3.4]octan-2-yl}pentan-1-one]
SREBP-2
  IC50: 1000 to 10000 nM
LXRβ
  EC50: > 10000 nM

## C[C@H](CCC(=O)N(C)CCc1cccnc1)[C@H]1CC[C@H]2[C@@H]3CC=C4C[C@@H](O)CC[C@]4(C)[C@H]3CC[C@]12C [Example 543, (R)-4-((3S,8S,9S,10R,13R,14S,17R)-3-hydroxy-10,13-dimethyl-2,3,4,7,8,9,10,11,12,13,14,15,16,17-tetradecahydro-1H-cyclopenta[a]phenanthren-17-yl)-N-methyl-N-(2-(pyridin-3-yl)ethyl)pentanamide]
SREBP-2
  IC50: < 250 nM
LXRβ
  EC50: 250 to 1000 nM

Source: patent US20230340011A1 (Asteroid Therapeutics, priority 2022, published 2023)
